In article PMC11696302 (Nature Communications, 2025) one finds IC50 data, which are given here for 1 compound.

The target in the test is T1, yCPT1 (cholinephosphotransferase) (Saccharomyces cerevisiae, UniProt P17898).
T1 sequence (P17898 1-393): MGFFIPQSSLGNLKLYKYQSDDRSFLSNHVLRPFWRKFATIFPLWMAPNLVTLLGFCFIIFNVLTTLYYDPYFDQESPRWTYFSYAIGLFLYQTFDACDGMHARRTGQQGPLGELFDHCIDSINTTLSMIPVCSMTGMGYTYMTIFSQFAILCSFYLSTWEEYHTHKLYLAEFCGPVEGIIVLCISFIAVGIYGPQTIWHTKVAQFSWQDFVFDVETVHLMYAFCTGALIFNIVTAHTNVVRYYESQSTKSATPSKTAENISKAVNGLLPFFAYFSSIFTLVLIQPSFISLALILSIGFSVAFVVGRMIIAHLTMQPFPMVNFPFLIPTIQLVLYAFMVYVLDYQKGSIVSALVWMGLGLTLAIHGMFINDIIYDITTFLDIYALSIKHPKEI
Description: cryo-EM structure. It counts as biochemical.

SMILES strings stand for the structures. pIC50: −log10 of the molar value.

In the case of `COc1ccc2c(c[n+](C)c3c4cc5c(cc4ccc23)OCO5)c1OC` [chelerythrine], the pIC50 is 6.35.
